Test results taken from paper PMC10035947, “Development of novel anilinoquinazoline-based carboxylic acids as non-classical carbonic anhydrase IX and XII inhibitors” (Journal of Enzyme Inhibition and Medicinal Chemistry, 2023).

Experiments:
Assay in all cases: NCI SRB assay
[1] = tested on: RPMI-8226; type: cell-based, human; conditions: for GI%: RPMI-8226, 10 μM; for Growth Percent: RPMI-8226, 1.00E-5 Molar
[2] = tested on: SF-268; type: cell-based, human; conditions: for Growth Percent: SF-268, 1.00E-5 Molar; for GI%: SF-268, 10 μM
[3] = tested on: NCI-H322M; type: cell-based, human; conditions: for GI%: 10 μM; for Growth Percent: 1.00E-5 Molar
[4] = tested on: OVCAR-4; type: cell-based, human; conditions: for GI%: OVCAR-4, 10 μM; for Growth Percent: OVCAR-4, 1.00E-5 Molar
[5] = tested on: HCT-15; type: cell-based, human; conditions: for GI%: HCT-15, 10 μM; for Growth Percent: HCT-15, 1.00E-5 Molar
[6] = tested on: SR; type: cell-based, human; conditions: for GI%: 10 μM; for Growth Percent: 1.00E-5 Molar
[7] = tested on: K-562; type: cell-based, human; conditions: for GI%: K-562, 10 μM; for Growth Percent: K-562, 1.00E-5 Molar
[8] = tested on: SN12C; type: cell-based, human; conditions: SN12C; for GI%: 10 μM; for Growth Percent: 1.00E-5 Molar
[9] = tested on: A549/ATCC; type: cell-based, human; conditions: A549/ATCC; for GI%: 10 μM; for Growth Percent: 1.00E-5 Molar
[10] = tested on: MDA-MB-231; type: cell-based; conditions: for Growth Percent: MDA-MB-231/ATCC, 1.00E-5 Molar
[11] = tested on: UO-31; type: cell-based, human; conditions: for GI%: UO-31, 10 μM; for Growth Percent: UO-31, 1.00E-5 Molar
[12] = tested on: HL-60(TB); type: cell-based, human; conditions: HL-60(TB); for GI%: 10 μM; for Growth Percent: 1.00E-5 Molar
[13] = tested on: DU-145; type: cell-based, human; conditions: for GI%: DU-145, 10 μM; for Growth Percent: DU-145, 1.00E-5 Molar
[14] = tested on: COLO 205; type: cell-based, human; conditions: for GI%: COLO 205, 10 μM; for Growth Percent: COLO 205, 1.00E-5 Molar
[15] = tested on: RXF 393; type: cell-based, human; conditions: RXF 393, 1.00E-5 Molar

SMILES	GI% [1] [%]	Growth Percent [1] [%]	Growth Percent [2] [%]	GI% [3]	Growth Percent [3] [%]	GI% [4]	Growth Percent [4] [%]	GI% [5] [%]	Growth Percent [5] [%]	GI% [7]	Growth Percent [7] [%]	Growth Percent [8] [%]	GI% [9]	Growth Percent [9] [%]	GI% [12]	Growth Percent [12] [%]	GI% [13]	Growth Percent [13] [%]	GI% [14]	Growth Percent [14] [%]	other results
Cc1cccc(-c2nc(Nc3ccccc3C(=O)O)c3ccccc3n2)c1 [6a, 2-((2-(m-Tolyl)quinazolin-4-yl)amino)benzoic acid]	71	28.59	37.50	52%	48.74	58%	41.88	86	14.29	71%	28.68	40.74	56%	43.63	60%	39.37	50%	50.47	– (Only GI% higher than 20% are shown)	120.57	GI% [6]: 77%; Growth Percent [6]: 23.03%; GI% [8]: 59%; GI% ([10]; MDA-MB-231, 10 μM): 34%; Growth Percent [10]: 66.08%; GI% [11]: 69%; Growth Percent [11]: 31.01%
COc1ccc(-c2nc(Nc3ccccc3C(=O)O)c3ccccc3n2)cc1 [6c, 2-((2–(4-Methoxyphenyl)quinazolin-4-yl)amino)benzoic acid]	80	20.19	56.93	24%	75.73	66%	34.25	61	39.33	69%	31.34	47.71	60%	39.61	67%	32.98	43%	56.86	– (Only GI% higher than 20% are shown)	81.88	GI% [2]: 43%; Growth Percent [15]: 68.31%
Cc1ccc(-c2nc(Nc3ccc(C(=O)O)cc3)c3ccccc3n2)cc1 [8b, 4-((2-(p-Tolyl)quinazolin-4-yl)amino)benzoic acid]	45	55.07	70.34	– (Only GI% higher than 20% are shown)	84.20	26%	74.11	49	50.85	23%	76.80	48.99	– (Only GI% higher than 20% are shown)	95.03	24%	76.30	– (Only GI% higher than 20% are shown)	81.93	– (Only GI% higher than 20% are shown)	109.50	GI% [2]: 30%; GI% [6]: 38%; Growth Percent [6]: 61.50%; GI% [8]: 51%; Growth Percent [10]: 87.83%; GI% [11]: 58%; Growth Percent [11]: 41.73%
Cc1ccc(-c2nc(Nc3cccc(C(=O)O)c3)c3ccccc3n2)cc1 [7b, 3-((2-(p-Tolyl)quinazolin-4-yl)amino)benzoic acid]	29	70.78	69.32	– (Only GI% higher than 20% are shown)	99.74	23%	77.91	55	45.38	20%	80.06	76.64	– (Only GI% higher than 20% are shown)	90.82	– (Only GI% higher than 20% are shown)	85.11	– (Only GI% higher than 20% are shown)	96.55	– (Only GI% higher than 20% are shown)	124.60	GI% [2]: 31%; GI% [6]: 41%; Growth Percent [6]: 58.68%; GI% [8]: 23%; Growth Percent [10]: 95.55%; GI% [11]: 51%; Growth Percent [11]: 48.97%
Cc1cccc(-c2nc(Nc3ccc(C(=O)O)cc3)c3ccccc3n2)c1 [8a, 4-((2-(m-Tolyl)quinazolin-4-yl)amino)benzoic acid]	30	70.27	62.51	– (Only GI% higher than 20% are shown)	103.28	– (Only GI% higher than 20% are shown)	83.42	29	70.54	– (Only GI% higher than 20% are shown)	80.44	58.07	22%	78.30	– (Only GI% higher than 20% are shown)	92.72	– (Only GI% higher than 20% are shown)	87.83	– (Only GI% higher than 20% are shown)	135.98	GI% [2]: 37%; GI% [6]: 32%; Growth Percent [6]: 67.75%; GI% [8]: 42%; Growth Percent [10]: 93.31%; GI% [11]: 54%; Growth Percent [11]: 45.85%
